Experimental data published in ChEMBL document CHEMBL4420071, “Method for treating skin with retinoids and retinoid boosters” (2013).

Legend:
Homo sapiens [1] = species: Homo sapiens; test: Inhibition of transglutaminase in human keratinocytes assessed as mean transglutaminase activity level at 1.6 10^-4M in presence of 10 uM retinal relative to retinal alone; assay type: cell-based; parameters: scale not given: the % may be the effect or the level left
Homo sapiens [2] = species: Homo sapiens; test: Inhibition of transglutaminase in human keratinocytes assessed as mean transglutaminase activity level at 5.33 10^-5M in presence of 10 uM retinal relative to retinal alone; assay type: cell-based; parameters: scale not given: the % may be the effect or the level left
Homo sapiens [3] = species: Homo sapiens; test: Inhibition of transglutaminase in human keratinocytes assessed as mean transglutaminase activity level at 1.78 10^-5M in presence of 10 uM retinal relative to retinal alone; assay type: cell-based; parameters: scale not given: the % may be the effect or the level left
Homo sapiens [4] = species: Homo sapiens; test: Inhibition of transglutaminase in human keratinocytes assessed as mean transglutaminase activity level at 5.93 10^-6M in presence of 10 uM retinal relative to retinal alone; assay type: cell-based; parameters: scale not given: the % may be the effect or the level left
Homo sapiens [5] = species: Homo sapiens; test: Inhibition of transglutaminase in human keratinocytes assessed as mean transglutaminase activity level at 1.98 10^-6M in presence of 10 uM retinal relative to retinal alone; assay type: cell-based; parameters: scale not given: the % may be the effect or the level left
Homo sapiens [6] = species: Homo sapiens; test: Inhibition of transglutaminase in human keratinocytes assessed as mean transglutaminase activity level at 6.58 10^-7M in presence of 10 uM retinal relative to retinal alone; assay type: cell-based; parameters: scale not given: the % may be the effect or the level left
Homo sapiens [7] = species: Homo sapiens; test: Inhibition of transglutaminase in human keratinocytes assessed as mean transglutaminase activity level at 2.19 10^-9M in presence of 10 uM retinal relative to retinal alone; assay type: cell-based; parameters: scale not given: the % may be the effect or the level left
Homo sapiens [8] = species: Homo sapiens; test: Inhibition of transglutaminase in human keratinocytes assessed as mean transglutaminase activity level at 4.39 10^-8M in presence of 10 uM retinal relative to retinal alone; assay type: cell-based; parameters: scale not given: the % may be the effect or the level left
Homo sapiens [9] = species: Homo sapiens; test: Inhibition of transglutaminase in human keratinocytes assessed as mean transglutaminase activity level at 8.78 10^-9M in presence of 10 uM retinal relative to retinal alone; assay type: cell-based; parameters: scale not given: the % may be the effect or the level left
Homo sapiens [10] = species: Homo sapiens; test: Inhibition of transglutaminase in human keratinocytes assessed as mean transglutaminase activity level at 1.79 10^-9M in presence of 10 uM retinal relative to retinal alone; assay type: cell-based; parameters: scale not given: the % may be the effect or the level left
Homo sapiens [11] = species: Homo sapiens; test: Inhibition of transglutaminase in human keratinocytes assessed as mean transglutaminase activity level at 3.73 10^-4M in presence of 10 uM retinal relative to retinal alone; assay type: cell-based; parameters: scale not given: the % may be the effect or the level left
Homo sapiens [12] = species: Homo sapiens; test: Inhibition of transglutaminase in human keratinocytes assessed as mean transglutaminase activity level at 1.23 10^-5M in presence of 10 uM retinal relative to retinal alone; assay type: cell-based; parameters: scale not given: the % may be the effect or the level left
Homo sapiens [13] = species: Homo sapiens; test: Inhibition of transglutaminase in human keratinocytes assessed as mean transglutaminase activity level at 4.1 10^-5M in presence of 10 uM retinal relative to retinal alone; assay type: cell-based; parameters: scale not given: the % may be the effect or the level left
Homo sapiens [14] = species: Homo sapiens; test: Inhibition of transglutaminase in human keratinocytes assessed as mean transglutaminase activity level at 8.2 10^-6M in presence of 10 uM retinal relative to retinal alone; assay type: cell-based; parameters: scale not given: the % may be the effect or the level left
Homo sapiens [15] = species: Homo sapiens; test: Inhibition of transglutaminase in human keratinocytes assessed as mean transglutaminase activity level at 1.65 10^-7M in presence of 10 uM retinal relative to retinal alone; assay type: cell-based; parameters: scale not given: the % may be the effect or the level left
Homo sapiens [16] = species: Homo sapiens; test: Inhibition of transglutaminase in human keratinocytes assessed as mean transglutaminase activity level at 3.29 10^-7M in presence of 10 uM retinal relative to retinal alone; assay type: cell-based; parameters: scale not given: the % may be the effect or the level left
Homo sapiens [17] = species: Homo sapiens; test: Inhibition of transglutaminase in human keratinocytes assessed as mean transglutaminase activity level at 1.4 10^-2M in presence of 10 uM retinal relative to retinal alone; assay type: cell-based; parameters: scale not given: the % may be the effect or the level left
Homo sapiens [18] = species: Homo sapiens; test: Inhibition of transglutaminase in human keratinocytes assessed as mean transglutaminase activity level at 4.8 10^-3M in presence of 10 uM retinal relative to retinal alone; assay type: cell-based; parameters: scale not given: the % may be the effect or the level left
Homo sapiens [19] = species: Homo sapiens; test: Inhibition of transglutaminase in human keratinocytes assessed as mean transglutaminase activity level at 1 10^-3M in presence of 10 uM retinal relative to retinal alone; assay type: cell-based; parameters: scale not given: the % may be the effect or the level left
Homo sapiens [20] = species: Homo sapiens
Description: Inhibition of transglutaminase in human keratinocytes in presence of 10 uM retinal relative to retinal alone

Homo sapiens [21] = species: Homo sapiens; test: Inhibition of transglutaminase in human keratinocytes assessed as mean transglutaminase activity level at 9.1 10^-4M in presence of 10 uM retinal relative to retinal alone; assay type: cell-based; parameters: scale not given: the % may be the effect or the level left
Homo sapiens [22] = species: Homo sapiens; test: Inhibition of transglutaminase in human keratinocytes assessed as mean transglutaminase activity level at 1.23 10^-4M in presence of 10 uM retinal relative to retinal alone; assay type: cell-based; parameters: scale not given: the % may be the effect or the level left
Homo sapiens [23] = species: Homo sapiens; test: Inhibition of transglutaminase in human keratinocytes assessed as mean transglutaminase activity level at 3.1 10^-5M in presence of 10 uM retinal relative to retinal alone; assay type: cell-based; parameters: scale not given: the % may be the effect or the level left
Homo sapiens [24] = species: Homo sapiens; test: Inhibition of transglutaminase in human keratinocytes assessed as mean transglutaminase activity level at 1.2 10^-5M in presence of 10 uM retinal relative to retinal alone; assay type: cell-based; parameters: scale not given: the % may be the effect or the level left
Homo sapiens [25] = species: Homo sapiens; test: Inhibition of transglutaminase in human keratinocytes assessed as mean transglutaminase activity level at 3.65 10^-6M in presence of 10 uM retinal relative to retinal alone; assay type: cell-based; parameters: scale not given: the % may be the effect or the level left
Homo sapiens [26] = species: Homo sapiens; test: Inhibition of transglutaminase in human keratinocytes assessed as mean transglutaminase activity level at 1.29 10^-6M in presence of 10 uM retinal relative to retinal alone; assay type: cell-based; parameters: scale not given: the % may be the effect or the level left
Homo sapiens [27] = species: Homo sapiens; test: Inhibition of transglutaminase in human keratinocytes assessed as mean transglutaminase activity level at 2 10^-7M in presence of 10 uM retinal relative to retinal alone; assay type: cell-based; parameters: scale not given: the % may be the effect or the level left
Homo sapiens [28] = species: Homo sapiens; test: Inhibition of transglutaminase in human keratinocytes assessed as mean transglutaminase activity level at 5.1 10^-8M in presence of 10 uM retinal relative to retinal alone; assay type: cell-based; parameters: scale not given: the % may be the effect or the level left
Homo sapiens [29] = species: Homo sapiens; test: Inhibition of transglutaminase in human keratinocytes assessed as mean transglutaminase activity level at 1 10^-8M in presence of 10 uM retinal relative to retinal alone; assay type: cell-based; parameters: scale not given: the % may be the effect or the level left
[30] = molecular target: T1, Cellular retinoic acid-binding protein 2 (Homo sapiens) (UniProt P29373); test: Inhibition of radioactive all-trans retinoic acid binding to CRABP2 (unknown origin) expressed in Escherichia coli BLR(DE3)pLys incubated for 1 hr by scintillation counting assay; conditions: concentration not given here
T1 sequence (whole entry): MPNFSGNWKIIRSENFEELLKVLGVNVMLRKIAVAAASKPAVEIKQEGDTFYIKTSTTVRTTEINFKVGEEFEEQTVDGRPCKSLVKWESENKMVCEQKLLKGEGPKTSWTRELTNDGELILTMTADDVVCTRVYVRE

Homo sapiens [31] = species: Homo sapiens; test: Inhibition of transglutaminase in human keratinocytes assessed as mean transglutaminase activity level at 5.0 10^-8M in presence of 10 uM retinal relative to retinal alone; assay type: cell-based; parameters: scale not given: the % may be the effect or the level left
Homo sapiens [32] = species: Homo sapiens; test: Inhibition of transglutaminase in human keratinocytes assessed as mean transglutaminase activity level at 1.1 10^-8M in presence of 10 uM retinal relative to retinal alone; assay type: cell-based; parameters: scale not given: the % may be the effect or the level left
Homo sapiens [33] = species: Homo sapiens; test: Inhibition of transglutaminase in human keratinocytes assessed as mean transglutaminase activity level at 2 10^-8M in presence of 10 uM retinal relative to retinal alone; assay type: cell-based; parameters: scale not given: the % may be the effect or the level left
Homo sapiens [34] = species: Homo sapiens; test: Inhibition of transglutaminase in human keratinocytes assessed as mean transglutaminase activity level at 4.3 10^-9M in presence of 10 uM retinal relative to retinal alone; assay type: cell-based; parameters: scale not given: the % may be the effect or the level left
Homo sapiens [35] = species: Homo sapiens; test: Inhibition of transglutaminase in human keratinocytes assessed as mean transglutaminase activity level at 1.14 10^-3M in presence of 10 uM retinal relative to retinal alone; assay type: cell-based; parameters: scale not given: the % may be the effect or the level left
Homo sapiens [36] = species: Homo sapiens; test: Inhibition of transglutaminase in human keratinocytes assessed as mean transglutaminase activity level at 3.8 10^-4M in presence of 10 uM retinal relative to retinal alone; assay type: cell-based; parameters: scale not given: the % may be the effect or the level left
Homo sapiens [37] = species: Homo sapiens; test: Inhibition of transglutaminase in human keratinocytes assessed as mean transglutaminase activity level at 3.3123 10^-4M in presence of 10 uM retinal relative to retinal alone; assay type: cell-based; parameters: scale not given: the % may be the effect or the level left
Homo sapiens [38] = species: Homo sapiens; test: Inhibition of transglutaminase in human keratinocytes assessed as mean transglutaminase activity level at 4.22 10^-5M in presence of 10 uM retinal relative to retinal alone; assay type: cell-based; parameters: scale not given: the % may be the effect or the level left
Homo sapiens [39] = species: Homo sapiens; test: Inhibition of transglutaminase in human keratinocytes assessed as mean transglutaminase activity level at 1.41 10^-6M in presence of 10 uM retinal relative to retinal alone; assay type: cell-based; parameters: scale not given: the % may be the effect or the level left
Homo sapiens [40] = species: Homo sapiens; test: Inhibition of transglutaminase in human keratinocytes assessed as mean transglutaminase activity level at 4.69 10^-7M in presence of 10 uM retinal relative to retinal alone; assay type: cell-based; parameters: scale not given: the % may be the effect or the level left
Homo sapiens [41] = species: Homo sapiens; test: Inhibition of transglutaminase in human keratinocytes assessed as mean transglutaminase activity level at 6.26 10^-8M in presence of 10 uM retinal relative to retinal alone; assay type: cell-based; parameters: scale not given: the % may be the effect or the level left
Homo sapiens [42] = species: Homo sapiens; test: Inhibition of transglutaminase in human keratinocytes assessed as mean transglutaminase activity level at 1.25 10^-8M in presence of 10 uM retinal relative to retinal alone; assay type: cell-based; parameters: scale not given: the % may be the effect or the level left
Homo sapiens [43] = species: Homo sapiens; test: Inhibition of transglutaminase in human keratinocytes assessed as mean transglutaminase activity level at 6.9 10^-9M in presence of 10 uM retinal relative to retinal alone; assay type: cell-based; parameters: scale not given: the % may be the effect or the level left
Homo sapiens [44] = species: Homo sapiens; test: Inhibition of transglutaminase in human keratinocytes assessed as mean transglutaminase activity level at 1.0 10^-9M in presence of 10 uM retinal relative to retinal alone; assay type: cell-based; parameters: scale not given: the % may be the effect or the level left

Compound: CCCCCCCC(=O)OC[C@H](COP(=O)([O-])OCC[N+](C)(C)C)OC(=O)CCCCCCC
- Activity (Homo sapiens [1]): 58.1%
- Activity (Homo sapiens [2]): 95.4%
- Activity (Homo sapiens [3]): 104%
- Activity (Homo sapiens [4]): 129%
- Activity (Homo sapiens [5]): 110%
- Activity (Homo sapiens [6]): 92.8%
- Activity (Homo sapiens [7]): 88.6%
- Activity (Homo sapiens [8]): 127%
- Activity (Homo sapiens [9]): 119%
- Activity (Homo sapiens [10]): 82%

Compound: COc1cc(C=O)ccc1O
- Activity (Homo sapiens [11]): 101%
- Activity (Homo sapiens [12]): 82%
- Activity (Homo sapiens [13]): 98%
- Activity (Homo sapiens [14]): 109%
- Activity (Homo sapiens [15]): 80%
- Activity (Homo sapiens [16]): 93%
- Activity (Homo sapiens [17]): 21.5%
- Activity (Homo sapiens [18]): 93.8%
- Activity (Homo sapiens [19]): 124%
- IC20 (Homo sapiens [20]): 8.47 ×10⁻³ M

Compound: CCCCCCCCCCCCCCCCC(O)C(=O)O (configuration not stated)
- Activity (Homo sapiens [11]): 69.3%
- Activity (Homo sapiens [21]): 46.6%
- Activity (Homo sapiens [22]): 51%
- Activity (Homo sapiens [23]): 96%
- Activity (Homo sapiens [24]): 105%
- Activity (Homo sapiens [25]): 63%
- Activity (Homo sapiens [26]): 80%
- Activity (Homo sapiens [27]): 142%
- Activity (Homo sapiens [28]): 64%
- Activity (Homo sapiens [29]): 58%

Compound: CCCCCCC(O)CCCCCCCCCCC(=O)O (configuration not stated)
- inhibition [30]: > 50%
- Activity (Homo sapiens [12]): -5.2%
- Activity (Homo sapiens [13]): 32.4%
- Activity (Homo sapiens [14]): 97.6%
- Activity (Homo sapiens [15]): 90.2%
- Activity (Homo sapiens [16]): 82%
- Activity (Homo sapiens [31]): 81%
- Activity (Homo sapiens [32]): 98%
- Activity (Homo sapiens [33]): 118%
- Activity (Homo sapiens [34]): 71%
- IC20 (Homo sapiens [20]): 1.45 ×10⁻⁵ M

Compound: O=C(Nc1ccc(Cl)cc1)Nc1ccc(Cl)c(Cl)c1
- Activity (Homo sapiens [35]): 36.3%
- Activity (Homo sapiens [36]): 3.8%
- Activity (Homo sapiens [37]): -3.2%
- Activity (Homo sapiens [38]): -11.2%
- Activity (Homo sapiens [39]): -0.3%
- Activity (Homo sapiens [40]): 15.9%
- Activity (Homo sapiens [41]): 18.9%
- Activity (Homo sapiens [42]): 100%
- Activity (Homo sapiens [43]): 77.6%
- Activity (Homo sapiens [44]): 54.4%
- IC20 (Homo sapiens [20]): 6.18 ×10⁻⁷ M
